Tests used:
[1] = system: MCF-7 (ER+) human derived breast carcinoma cells; assay: Growth inhibitory assay (MTT), MCF-7; type: cell-based; conditions: MCF7, ER+ MCF-7, 3 days (72 h) treatment, n=8, representative mean, ^a = biphasic dose response
Experimental: (§1) Prodrugs were prepared as 10 mM top stocks, dissolved in dimethylsulphoxide (DMSO) or sterile ddH2O, and stored at 4°C, protected from light for a maximum period of 4 weeks. MCF-7 (ER+) and MDA 468 (ER−) human derived breast carcinoma cells, cultivated at 37°C in an atmosphere of 5% CO2 in RPMI 1640 medium supplemented with 2 mM L-glutamine and 10% foetal calf serum, were routinely subcultured twice weekly to maintain continuous logarithmic growth. Cells were seeded into 96-well microtiter plates at a density of 5×10^3 per well and allowed 24 h to adhere before drugs were introduced (final concentration 0.1 nM–100 μM, n=8). Serial drug dilutions were prepared in medium immediately prior to each assay. Viable cell masses at the time of drug addition (time-zero), and following 72 h drug exposure were determined by cell-mediated 3-(4,5-dimethylthiazol-2-yl)-2,5-diphenyltetrazolium bromide (MTT) reduction. MTT was added to each well (final concentration 400 μg ml^−1) and plates were incubated at 37°C for 4 h to allow reduction of MTT by viable cell dehydrogenases to an insoluble formazan product. Well supernatants were aspirated and cellular formazan solubilised by addition of DMSO : glycine buffer (pH 10.5) (4 : 1). Cell growth as well as drug activity were determined by measuring absorbance at 550 nm using an Anthos Labtec systems plate reader.

[2] = system: MDA 468 (ER−) human derived breast carcinoma cells; assay: Growth inhibitory assay (MTT), MDA 468; type: cell-based; conditions: Breast carcinoma cell, ER− MDA 468, 3 days (72 h) treatment, n=8, representative mean, ^a = biphasic dose response
Experimental: as §1

[3] = system: CYP1A1 activity (EROD) in MCF-7 cells; assay: Induction of EROD activity in lysates of treated MCF-7 cells; type: cell-based, human; conditions: lysates of MCF-7 cells treated with 1 μM, 24 h; negligible activity in untreated lysates; mean of three, s.d. <10%
Experimental: (§2) A sensitive and rapid fluorometric assay was used to measure EROD activity ([Burke et al, 1994]). Incubation mixtures (total 1 ml) consisted of 100 mM Tris-HCl (pH 7.4), 50 μM MgCl2, 100 μM 7-ethoxyresorufin and 100 μl cell homogenate. Homogenates were prepared following treatment of cells for 24 h with compounds 1, 2, 2a, 2b, 3, 3a, 3b, 4, 4a and 4b or vehicle alone and protein content determined (n=3). Thus induction of ethoxyresorufin O-deethylation by agents under study, catalysed by CYP1A1 activity, could be determined. Alternatively, microsomes expressing recombinant CYP1A1 (0.1 mg ml^−1) provided the enzyme source for EROD catalysis, in the presence or absence of drug, in order to determine inhibition of CYP1A1 activity by compounds 1, 2, 2a, 2b, 3, 3a, 3b, 4, 4a and 4b. Incubation mixtures were pre-incubated for 5 min at 37°C before initiation of reaction by addition of NADPH (500 μM). Following further incubations at 37°C (30 min for cell homogenates, 15 min for CYP1A1 microsomes), reactions were terminated by addition of 3 ml ice-cold acetonitrile. Reaction mixtures were centrifuged (1400 r.p.m., 10 min) before analyses of supernatants. Fluorescence was read on a Perkin-Elmer LS-5 luminescence spectrometer (excitation, 530 nm; emission 585 nm). Estimation of resorufin reaction product (pmoles mg^−1 protein, pmoles 100 μg^−1 microsomes), as a measure of CYP1A1 activity, was determined following performance of a resorufin standard curve.

CYP1A1 [4] = molecular target: T1, CYP1A1 (Homo sapiens, UniProt P04798); assay: Inhibition of recombinant CYP1A1 microsomal EROD activity; type: biochemical; conditions: microsomes expressing recombinant CYP1A1, pH 7.4, probe 7-ethoxyresorufin (100 μM); 30 μM agent; incubates without drug = 100% activity; mean of three, s.d. <10%; read-out: Microsomal CYP1A1 EROD activity (% control)
T1 sequence (P04798 1-512): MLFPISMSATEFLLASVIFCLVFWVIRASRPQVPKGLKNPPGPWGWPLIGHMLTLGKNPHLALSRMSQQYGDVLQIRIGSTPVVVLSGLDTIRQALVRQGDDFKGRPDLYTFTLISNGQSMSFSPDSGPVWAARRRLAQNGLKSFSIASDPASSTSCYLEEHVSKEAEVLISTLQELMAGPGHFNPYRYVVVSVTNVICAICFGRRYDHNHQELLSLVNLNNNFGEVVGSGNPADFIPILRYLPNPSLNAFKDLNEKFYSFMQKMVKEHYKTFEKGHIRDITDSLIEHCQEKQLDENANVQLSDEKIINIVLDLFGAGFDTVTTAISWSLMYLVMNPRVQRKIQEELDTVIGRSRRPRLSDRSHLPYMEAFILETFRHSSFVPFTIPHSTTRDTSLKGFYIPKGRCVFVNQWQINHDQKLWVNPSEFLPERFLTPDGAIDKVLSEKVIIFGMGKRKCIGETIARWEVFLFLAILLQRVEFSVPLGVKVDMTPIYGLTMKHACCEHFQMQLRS
Experimental: as §2

[5] = system: CYP1A1 protein expression in MCF-7 cells; assay: Western blot of CYP1A1 protein, MCF-7 lysates; type: cell-based, human; conditions: 1 μM, 24 h
Experimental: (§3) Whole cell lysates were prepared for examination of CYP1A1 protein expression from untreated MCF-7, IGROV-1 and HCT 116 cultures and following exposure of cells to compounds 1, 2, 2a, 2b, 3, 3a, 3b, 4, 4a and 4b. Following protein determination (n=3, [Bradford, 1976]) and addition of sample buffer, samples were boiled at 95°C for 5 min and solubilised proteins (50 μg) were separated by sodium dodecyl sulphate (SDS) polyacrylamide gel (10%) electrophoresis. Proteins were electroblotted to polyvinylidene difluoride (PVDF) membranes and probed for CYP1A1 protein with polyclonal antiserum specific for human CYP1A1/1A2 (Gentest Corporation). Secondary antibody was conjugated to alkaline phosphatase, and CYP1A1 was detected following brief (<10 min) incubation with bromochloroindolyl phosphate and nitro-blue tetrazolium in alkaline phosphatase buffer. Molecular weight markers and a positive control of recombinant CYP1A1 (Gentest Corporation), included in all blots, confirmed detection of 52 kDa CYP1A1 protein.

[6] = system: CYP1A1 protein expression in HCT 116 cells; assay: Western blot of CYP1A1 protein, HCT 116 lysates; type: cell-based, human
Experimental: as §3

MCF-7 cells = assay: Prodrug uptake, conversion and metabolism (HPLC of media), MCF-7; type: in vitro ADME, human; conditions: for Biotransformation products of liberated parent amine in media: prodrug 10 μM, days 1–7
Experimental: (§4) MCF-7 cells were seeded into 25 ml flasks at appropriate densities (5×10^5–5×10^6). After 24 h, medium was changed and drug introduced at a final concentration of 10 μM. Media samples, collected from flasks at time zero and 24 h intervals, were mixed with 1.5-fold volumes of high performance liquid chromatography (HPLC) grade acetonitrile to precipitate protein and centrifuged at 14 000 g for 5 min. Supernatants (600 μl) were mixed with 400 μl 10% acetonitrile in 1% acetic acid and analysed by HPLC. The system consisted of Beckman System Gold equipment (solvent module 128, autosampler 507e and multiple wavelength UV detector 168). Separation of parent compounds and biotransformation products was effected at room temperature on a Phenomenex Aqua C18 reversed-phase column (150×4.6 mm). The mobile phase was formed by increasing, then decreasing the acetonitrile concentration in 1% acetic acid over 20 min by mixing two solutions: acetonitrile-water-acetic acid (10 : 90 : 1, v v^−1) and acetonitrile-water-acetic acid (80 : 20 : 1 v v^−1) and delivered at a flow rate of 1 ml min^−1. Compounds were detected at 324 nm.

T47D breast cells = assay: Prodrug uptake, conversion and metabolism (HPLC of media), T47D; type: in vitro ADME, human
Experimental: as §4, with “The mobile phase was formed by increasing, then decreasing the acetonitrile concentration in 1% acetic acid over 20 min by mixing two solutions: acetonitrile-water-acetic acid (10 : 90 : 1, v v^−1) and acetonitrile-water-acetic acid (80 : 20 : 1 v v^−1) and delivered at a flow rate of 1 ml min^−1.” left out
(§5) Uptake and metabolism of compounds 1a and 1b were examined in sensitive breast (MCF-7 and T47D) and insensitive renal (A498) cells using HPLC conditions which allow simultaneous detection of prodrug, parent amine and metabolites. When incubated at 0.1, 1 or 10 μM over 7 days at 37°C, the lysyl-amide compound 1a was most readily removed from the media supporting MCF-7 and T47D cells (Figure 2

A498 renal cells = assay: Prodrug uptake, conversion and metabolism (HPLC of media), A498; type: in vitro ADME, human
Experimental: as §4, with “The mobile phase was formed by increasing, then decreasing the acetonitrile concentration in 1% acetic acid over 20 min by mixing two solutions: acetonitrile-water-acetic acid (10 : 90 : 1, v v^−1) and acetonitrile-water-acetic acid (80 : 20 : 1 v v^−1) and delivered at a flow rate of 1 ml min^−1.” left out
as §5

CYP1A1 [7] = molecular target: T1, CYP1A1; design: method as in Chua et al, 2000; conditions: ref Chua et al, 2000; cited from earlier work
[8] = Stability in human plasma; type: in vitro ADME; conditions: 37°C; no free amine detected
From the text: Data have been presented describing the in vitro biological properties of alanyl and lysyl amide derivatives of 2-(4-amino-3-methylphenyl)benzothiazoles. Prodrugs are rapidly depleted from nutrient media, generating their parent species in the presence of cells (Figures 2 and 3). In the absence of cells, no spontaneous hydrolysis of the amide bond occurs to release the amine from its amino acid salt. The cleavage of amino acid amides may be catalysed by ubiquitously expressed aminopeptidases, but subsequent bioactivating steps, essential for the mechanism of action of aminophenylbenzothiazoles, take place selectively in sensitive cell lines (e.g. Figure 5). Compounds 1a and 1b were stable when incubated at 37°C with human plasma; specifically, no free amine was detected.

Row | Compound | GI50 [1] [nM] | GI50 [2] [nM] | Induction EROD activity [3] | activity at 15 min, 30 μM (CYP1A1 [4]) [%] | CYP1A1 protein expression (Western blot) [5] | CYP1A1 protein expression (Western blot) [6] | Time of peak media level of regenerated parent amine (MCF-7 cells; regenerated from amide prodrugs, 7 day incubation) [days] | Time of peak media level of regenerated parent amine (T47D breast cells; T47D cells, regenerated from amide prodrugs, 7 day incubation) [days] | Removal of effluxed parent amine from media (A498 renal cells; inherently resistant A498 cells, 7 day incubation) | Inhibition of CYP1A1 microsome activity (CYP1A1 [7]) | Hydrolysis of prodrug to parent amine (T47D breast cells; 10 μM, sensitive ER+ T47D breast cells, 37°C) | Hydrolysis of prodrug to parent amine (A498 renal cells; 10 μM, insensitive A498 renal cells, 37°C) | Stability in human plasma [8] | Biotransformation products of liberated parent amine in media (MCF-7 cells)
1 | Cc1cc(-c2nc3ccccc3s2)ccc1N [Compound 1, 2-(4-amino-3-methylphenyl)benzothiazole] | < 0.1 | < 0.1 | 17.58 nM resorufin mg^-1 protein | 22.6 | induced | not induced | 3 | 3 | negligible net removal | irreversibly inhibited |  |  |  | 
2 | Cc1cc(-c2nc3ccccc3s2)ccc1NC(=O)[C@H](C)N [Compound 1a] | 0.32 | 39.9 |  |  |  |  |  |  |  |  | rapidly and efficiently hydrolysed | rapidly and efficiently hydrolysed | stable | 
3 | Cc1cc(-c2nc3ccccc3s2)ccc1NC(=O)[C@@H](N)CCCCN [Compound 1b] | 41.6 | 67.1 |  |  |  |  |  |  |  |  |  |  | stable | 
4 | Cc1cc(-c2nc3cc(F)ccc3s2)ccc1NC(=O)[C@H](C)N [Compound 2a] | 5.8 | 37.7 | 28.37 nM resorufin mg^-1 protein | 40.6 | induced |  |  |  |  |  |  |  |  | 
5 | Cc1cc(-c2nc3ccc(F)cc3s2)ccc1N [Compound 3] | 0.65 | 0.73 | 32.60 nM resorufin mg^-1 protein | 36.4 | induced | not induced |  |  |  |  |  |  |  | emergence of an oxidative metabolite
6 | Cc1cc(-c2nc3ccc(F)cc3s2)ccc1NC(=O)[C@H](C)N [Compound 3a] | 43.5 | 297 | 20.40 nM resorufin mg^-1 protein | 28.9 | induced |  |  |  |  |  |  |  |  | 
7 | Cc1cc(-c2nc3ccc(F)cc3s2)ccc1NC(=O)[C@@H](N)CCCCN [Compound 3b] | 147 | 328 | 19.88 nM resorufin mg^-1 protein | 47 | induced |  |  |  |  |  |  |  |  | 
8 | Cc1cc(-c2nc3cc(F)c(F)cc3s2)ccc1N [Compound 4] | < 0.1 | 3.55 | 32.02 nM resorufin mg^-1 protein | 43.1 | induced |  |  |  |  |  |  |  |  | emergence of an oxidative metabolite
9 | Cc1cc(-c2nc3cc(F)c(F)cc3s2)ccc1NC(=O)[C@H](C)N [Compound 4a] | 33 | 220 | 17.09 nM resorufin mg^-1 protein | 41.9 | induced |  |  |  |  |  |  |  |  | 
10 | Cc1cc(-c2nc3cc(F)c(F)cc3s2)ccc1NC(=O)[C@@H](N)CCCCN [Compound 4b] | 30.7 | 302 | 20.04 nM resorufin mg^-1 protein | 54.9 | induced |  |  |  |  |  |  |  |  | 

From publication PMC2375326, “In vitro evaluation of amino acid prodrugs of novel antitumour 2-(4-amino-3-methylphenyl)benzothiazoles” (British Journal of Cancer, 2002)
